This is an account of results in patent publication US9393324B2, “Use of 31P NMR spectroscopy of whole heart energetics for detection of drug-induced cardiotoxicity” (Battelle Memorial Institute, priority 2012, dated 2016).

The subject of data set [1] is isolated rat heart.
Source text: Applying this approach, a perfused isolated heart may be inserted into an 11.5 tesla NMR magnet for spectroscopic analysis of high-energy phosphagens (ATP, phosphocreatine, and inorganic phosphate) in combination with collection of heart effluent and tissue, and functional assessment of contractility can be determined as measured by dP/dtmax and dP/dtmin, left ventricular developed pressure, heart rate, etc.
(§1) A heart, in this case isolated from rat and perfused using the Langendorff method, is image guided by 1 H magnetic resonance imaging and magnetic resonance spectroscopy is performed for ^31P found in the high energy phosphogens ATP, phosphocreatine (PCr), and inorganic phosphate (Pi) in an upright 11.7 Tesla NMR at 161.99 MHz (FIGS. 1 and 2).
(§2) The energetic spectra from the whole heart was averaged every 4 minutes before and after drug exposure. PCr, ATP alpha, beta, and gamma, and Pi peak height and area, and pH calculated from the resonance shift in Pi (pHi=pK+log [(go−gB)/gA−go)] […] Heart contractility (left ventricular pressure) and heart rate is simultaneously acquired on an Emka IOX data acquisition system.
^31P spectra is acquired for 20 minutes prior to drug application. The drug of interest is then applied for 1 hour followed by a 20 minute stress test using 0.1 um isoproteranol (a beta agonist) in the presence of the drug which causes increased contractility, relaxation, heart rate, and increased conduction velocity. This step is done to test the energy reserve of the heart after drug application. […] As a positive control, we use FCCP, a mitochondrial uncoupler that inhibits mitochondrial oxidative phosphorylation by disrupting the mitochondrial protein gradient.
The test system of data set [2] is isolated rat heart. The source holds these as a separate data set.
Procedure: In combination with the functional assessment, whole heart energetics can be determined, measured as the changes in peak levels of ATP, phosphocreatine, and inorganic phosphate using NMR spectroscopy.
as §1, §2
^31P spectra is acquired for 20 minutes prior to drug application. The drug of interest is then applied for 1 hour followed by a 20 minute stress test using 0.1 um isoproteranol (a beta agonist) in the presence of the drug which causes increased contractility, relaxation, heart rate, and increased conduction velocity. This step is done to test the energy reserve of the heart after drug application.
[3] abbreviates: drug applied for 1 hour, before stress test.
The mark [4] stands for this setting: during 20 minute stress test, 0.1 um isoproteranol in the presence of the drug.

Entries after “also recorded” stand apart in the source; their conditions may differ. Like-named read-outs stand apart in the source and are kept apart here.

In the case of “carbony cyanide 4-(trifluoromethoxy) phenylhydrazone [FCCP]”, the “contractility (dP/dtmax)” value with isolated rat heart [1] (setting [3]) is listed as “declines”. Further, the contractility result in the data set on isolated rat heart [1] (setting [4]) was “increased slightly”. In the data set on isolated rat heart [2] (setting [3]), the ATPγ peak result is on record as “declines”, the PCr peak result is reported as “declines” and the Pi peak result is “did not affect”. In addition, in the data set on isolated rat heart [2] (setting [4]), the ATPγ peak result was “declined further”, the PCr peak entry was “dropped slightly” and the Pi peak entry is given as “no effect”.

Consider `COc1cccc2c1C(=O)c1c(O)c3c(c(O)c1C2=O)C[C@@](O)(C(=O)CO)C[C@@H]3O[C@H]1C[C@H](N)[C@H](O)[C@H](C)O1` [doxorubicin], for which the contractility entry with isolated rat heart [1] (doxorubicin 1 and 10 uM) is reported as “increases; also recorded: increasing”. Moreover, in the data set with isolated rat heart [2] (doxorubicin 1 and 10 uM), the ATP entry is recorded as “decreases”, the PCr entry is recorded as “decreases” and the “Pi (inorganic phosphate)” value is reported as “decreases”. Besides, the “effects on contractility and energetic parameters in the stress test period” value with isolated rat heart [2] (doxorubicin 1 and 10 uM, isoproteranol stress test period) is reported as “pronounced”. Besides, the phosphocreatine entry with isolated rat heart [2] (stress test with isoproteranol, versus control hearts) is listed as “pronounced drop”.
